Test: xn = mol fraction of the nth substance listed
Settings: 100 kPa

OCCO + CCCC[n+]1ccn(C)c1.O=S(=O)([N-]S(=O)(=O)C(F)(F)F)C(F)(F)F
viscosity [mPa·s]
Settings	293.15 K	298.15 K	303.15 K	308.15 K	313.15 K	318.15 K	323.15 K	328.15 K	333.15 K	338.15 K
x2 = 0.1	30.7	24.6	19.2	15.2	12.5	10.4	8.87	7.66	6.65	5.82
x2 = 0.2002	–	–	21.5	17.6	14.8	12.5	10.7	9.27	–	7.1
x2 = 0.2997	37.9	29.2	22.8	–	–	–	–	9.9	8.68	7.64
x2 = 0.4015	–	31.4	24.5	19.7	16.5	14.1	12.1	–	9.16	8.01
x2 = 0.4993	42	32.5	25.1	20.4	17.2	14.7	12.6	10.9	9.57	8.48
x2 = 0.6007	43	33.3	26.2	21.7	17.8	15	13	–	9.8	8.61
x2 = 0.7003	42	33.7	26.3	–	18.4	–	13.4	11.6	10.1	8.93
x2 = 0.7993	42.4	34.6	28.2	23.8	20.2	17.2	–	12.9	–	–
x2 = 0.9	48.7	39.8	32.8	27.3	23.1	19.7	–	–	12.9	11.4
